What was measured:
[1] = tested on: de novo telomere addition on chr4 in SL13 cells; assay: ADDIT assay (Addition of de novo initiated telomeres): modified STELA PCR and PacBio sequencing; format: cell-based, mouse; conditions: for de novo telomere addition compared to DMSO control: cells treated with DMSO, KU55933, Olaparib or both drugs
From the text: To examine potential mammalian genes that regulate telomere length, an assay was developed that allows visualization of telomere addition in vivo, referred here as ADDIT (Addition of de novo initiated telomeres). In a chromosomally stable CASTEiJ mouse fibroblast cell line, chromosome 4 (chr4) was modified to generate an internal 480 bp telomere ‘seed’ sequence followed by a unique I-Sce1 endonuclease cut site (FIG. 1A). The length of seed sequence was based on an early study showing that 400 bp of telomere repeats can act as functional telomeres. Using Southern blot analysis, two independent HYG-positive clones were identified, clone 1L and 1M, with a single chr4 allele correctly modified (data not shown).
To better visualize the telomere addition on the I-Sce1 cut telomere seed, the single telomere length analysis (STELA) (Baird et al., 2004, Hum Mol Genet 13, 1515-1524), a PCR-based approach that can measure telomere lengths from individual chromosome ends was modified. The STELA assay employs annealing and ligation of a linker, ‘telorette’, with TTAGGG and a unique 20-nucleotide sequence to the G-rich 3′ telomere overhang followed by PCR of the telomere from a ‘teltail’ primer and primer in the HYG sequence on the engineered chromosome (FIG. 2). The PCR product lengths will be proportional to the telomere lengths at the cleaved chr4 allele. As a control, to amplify the un-extended cut chromosome in vitro, a different linker, ‘IScerette’ was designed, which has a 4-nt homology to the 4-nt 3′ overhang created by the I-Sce1 endonuclease at the cleavage site (FIG. 2). […] This in vitro IScerette PCR product serves as a marker for the base line length of the cut, unextended telomere seed sequence.
To further verify the longer STELA PCR products represent de novo telomere addition, the PCR products were sequenced with Pacific Biosciences (PACBIO®) next generation sequencing technology. The PACBIO® platform produces longer reads and is less GC bias compared to other next generation sequencing platforms. While errors were present in the sequence as expected, the telomere repeats were easily recognizable. All of the reads from the PACBIO® were filtered and only those that had unique HYG sequence followed by telomere sequence and the ‘teltail’ primer sequence were examined. This assures that only full length of STELA PCR products were analyzed. The reads were then aligned at the junction between the HYG sequence and the telomere repeats. Wild-type TTAGGG repeats were colored orange and variant telomere repeats were colored in darker orange (FIG. 3A). Some of these variants arose due to errors in sequencing. An error rate similar to the published error rate of PACBIO® sequencing, 10-15% was observed. The errors were uniformly distributed over the reference sequence, dominated by point insertions and deletions, as expected for PACBIO® sequencing. There were three regions of divergent sequence in the original construct that are evident as darker orange stripes in the aligned reads (see for reference, in vitro IScelrette). These are small variation in TTAGGG sequence in the original SL13 clone and serve as useful internal reference points.
The original STELA protocol used for human cells (Baird et al., 2004, Hum Mol Genet 13, 1515-1524) was modified to measure telomere lengths on the de novo end of chr4 in SL13 cells. Briefly, genomic DNA was extracted using Puregene Core Kit A ^TM (Qiagen). 4 μg of genomic DNA was digested with SphI (NEB) and later diluted to 10 ng/μl in water. For the in vitro IScerette sample, genomic DNA was digested with SphI and I-SceI (NEB) prior to ligation. The ligation was carried out at 35° C. for at least 12 hrs in a volume of 10 μl containing 10 ng of digested genomic DNA, 0.9 μM of telorette linkers (mixture of telorette 1 to 6) or IScerette linker and 0.5 U of T4 DNA ligase (NEB) in 1× T4 ligation buffer. […]

[2] = tested on: SL13 cells; assay: Telomere length by Southern blot in continuously growing SL13 cells; format: cell-based, mouse
Procedure: Given that ATM inhibitor KU55933 treatment prevents telomere elongation by telomerase overexpression, whether KU55933 treatment shortens telomere lengths in continuously growing cells was tested. […] The distinct non-telomeric bands served as useful loading controls, confirming all lanes were equally loaded (FIG. 9B, pixel position 1 and 3).
Cell lines such as 293FT and HCT116 were grown in DMEM (Gibco) supplemented with 1% Penicillin/Streptomycin/Glutamine (PSG) and 10% heat inactivated FBS (Invitrogen). SL13 cells were grown in DMEM (Gibco) supplemented with 1% PSG and 10% Tet system approved FBS (Clontech, #631107). Final concentration of 2 μg/ml of doxycycline was added in the media to induce I-Sce1 expression. Typically cells were collected post 48 hours of doxcycline treatment. […]
To measure telomere lengths by Southern blot, genomic DNA was extracted from cell pellets collected at different population doublings using the Puregene Core Kit A™ (Qiagen). […] Labeled probe was counted and 10^6 counts/ml (telomere probe) or 10^4 counts/ml (ladder) was denatured at 100° C. for 5 minutes and added to the pre-hybridization solution and hybridized overnight at 65° C. Membranes were washed 3× 15 minutes each in 6× SSC and 1% SDS at 65° C., and 3× 15 minutes each in 1× SSC and 1% SDS at 65° C. and exposed to a phosphorimager screen and detected on a Fuji phosphorimager. […]

Structure (SMILES) | de novo telomere addition compared to DMSO control ([1]; different STELA primers) | percentage of reads with telomere elongation ([1]; cells treated with Olaparib or both drugs, different STELA primers) | telomere length at various PDs ([2]; SL13 cells grown in the presence of Olaparib, Southern blot) | addition of de novo telomere repeats beyond the I-Sce1 site ([1]; 48 hrs doxycycline, 10 μM KU55933 or 5 nM siATM) | telomere lengths at various population doublings ([2]; SL13 cells, 10 μM KU55933)
O=C(c1cc(Cc2n[nH]c(=O)c3ccccc23)ccc1F)N1CCN(C(=O)C2CC2)CC1 [Olaparib] | significantly higher percentage of de novo telomere addition | 22.4% | gradually increased after 25 PDs |  | 
O=c1cc(-c2cccc3c2Sc2ccccc2S3)oc(N2CCOCC2)c1 [KU55933] | less de novo telomere addition compared to DMSO control |  |  | fewer and significantly shorter elongation products | gradually shortened with increasing cell PDs

From patent US11156599B2, “Assay for telomere length regulators” (The Johns Hopkins University, priority 2015, dated 2021)
